Source: patent US10106558B2, “Azolobenzazine compounds, compositions comprising these compounds and their use for controlling invertebrate pests” (BASF SE, priority 2015, dated 2018)
Read-outs that look alike come from different tables or passages of the source.

Assays:
Format in all cases: in vivo
[1] = tested on: boll weevil (Anthonomus grandis); assay: Action on boll weevil, eggs on insect diet in 96-well microtiter plates; settings: 120 h, read-out: mortality in comparison with untreated controls
Experimental: Example B3: Action on Boll Weevil (Anthonomus grandis)
For evaluating control of boll weevil (Anthonomus grandis) the test unit consisted of 96-well-microtiter plates containing an insect diet and 5-10 A. grandis eggs.
(§1) The compounds were formulated using a solution containing 75% v/v water and 25% v/v DMSO. Different concentrations of formulated compounds were sprayed onto the insect diet at 5 μl, using a custom built micro atomizer, at two replications.
After application, microtiter plates were incubated at about 25±1° C. and about 75±5% relative humidity for 5 days. Egg and larval mortality was then visually assessed.

[2] = tested on: Mediterranean fruitfly (Ceratitis capitata); assay: Action on Mediterranean fruitfly, eggs on insect diet in microtiter plates; settings: 120 h, egg and larval mortality visually assessed after 5 days, read-out: mortality in comparison with untreated controls
Experimental: Example B5: Action on Mediterranean Fruitfly (Ceratitis capitata)
For evaluating control of Mediterranean fruitfly (Ceratitis capitata) the test unit consisted of microtiter plates containing an insect diet and 50-80 C. capitata eggs.
as §1
After application, microtiter plates were incubated at about […] and about 80+5% relative humidity for 5 days. Egg and larval mortality was then visually assessed.

[3] = tested on: yellow fever mosquito (Aedes aegypti); assay: whole plant or invertebrate; settings: 48 h, larval mortality visually assessed after 2 days, read-out: mortality in comparison with untreated controls
Experimental: Example B1: Action on Yellow Fever Mosquito (Aedes aegypti)
For evaluating control of yellow fever mosquito (Aedes aegypti) the test unit consisted of 96-well-microtiter plates containing 200 μl of tap water per well and 5-15 freshly hatched A. aegypti larvae.
The active compounds were formulated using a solution containing 75% (v/v) water and 25% (v/v) DMSO. Different concentrations of formulated compounds or mixtures were sprayed onto the insect diet at 2.5 μl, using a custom built micro atomizer, at two replications.
After application, microtiter plates were incubated at 28+1° C., 80+5% RH for 2 days. Larval mortality was then visually assessed.

[4] = tested on: tobacco budworm (Heliothis virescens); assay: Action on tobacco budworm, eggs on insect diet in 96-well microtiter plates; settings: 120 h, egg and larval mortality visually assessed after 5 days, read-out: mortality in comparison with untreated controls
Experimental: Example B6: Action on Tobacco Budworm (Heliothis virescens)
For evaluating control of tobacco budworm (Heliothis virescens) the test unit consisted of 96-well-microtiter plates containing an insect diet and 15-25 H. virescens eggs.
The compounds were formulated using a solution containing 75% v/v water and 25% v/v DMSO. Different concentrations of formulated compounds were sprayed onto the insect diet at 10 μl, using a custom built micro atomizer, at two replications.
After application, microtiter plates were incubated at about 28±1° C. and about 80±5% relative humidity for 5 days. Egg and larval mortality was then visually assessed.

[5] = tested on: Orchid Thrips (Dichromothrips corbetti); assay: Action on orchid thrips, floral-immersion technique; settings: adult thrips, 72 hours after treatment, read-out: mortality in comparison with untreated controls
Experimental: Example B2: Action on Orchid Thrips (Dichromothrips Corbetti)
Dichromothrips corbettiadults used for bioassay were obtained from a colony maintained continuously under laboratory conditions. For testing purposes, the test compound is diluted in a 1:1 mixture of acetone:water (vol:vol), plus Kinetic® HV at a rate of 0.01% v/v.
Thrips potency of each compound was evaluated by using a floral-immersion technique. All petals of individual, intact orchid flowers were dipped into treatment solution and allowed to dry in Petri dishes. Treated petals were placed into individual re-sealable plastic along with about 20 adult thrips. All test arenas were held under continuous light and a temperature of about 28° C. for duration of the assay. After 3 days, the numbers of live thrips were counted on each petal. The percent mortality was recorded 72 hours after treatment.

[6] = tested on: Diamond Back Moth (Plutella xylostella); assay: Action on diamond back moth, dipped cabbage leaves; settings: 3rd instar larvae, 72 hours after treatment, read-out: mortality in comparison with untreated controls
Experimental: Example B9: Action on Diamond Back Moth (Plutella xylostella)
The active compound is dissolved at the desired concentration in a mixture of 1:1 (vol:vol) distilled water:acetone. Surfactant (Kinetic® HV) is added at a rate of 0.01% (vol/vol). The test solution is prepared at the day of use.
Leaves of cabbage were dipped in test solution and air-dried. Treated leaves were placed in petri dishes lined with moist filter paper and inoculated with ten 3rd instar larvae. Mortality was recorded 72 hours after treatment. Feeding damages were also recorded using a scale of 0-100%.

[7] = tested on: Southern Armyworm (Spodoptera eridania), 2nd instar larvae; assay: Action on southern armyworm 2nd instar larvae, sprayed lima bean plants; settings: 96 h, 4 days after treatment, read-out: mortality in comparison with untreated controls
Experimental: Example B10: Action on Southern Armyworm (Spodoptera eridania), 2nd Instar Larvae
The active compounds were formulated by a Tecan liquid handler in 100% cyclohexanone as a 10,000 ppm solution supplied in tubes. The 10,000 ppm solution was serially diluted in 100% cyclohexanone to make interim solutions. These served as stock solutions for which final dilutions were made by the Tecan in 50% acetone:50% water (v/v) into 10 or 20 ml glass vials. A nonionic surfactant (Kinetic®) was included in the solution at a volume of 0.01% (v/v). The vials were then inserted into an automated electrostatic sprayer equipped with an atomizing nozzle for application to plants/insects.
Lima bean plants (variety Sieva) were grown 2 plants to a pot and selected for treatment at the 1st true leaf stage. Test solutions were sprayed onto the foliage by an automated electrostatic plant sprayer equipped with an atomizing spray nozzle. The plants were dried in the sprayer fume hood and then removed from the sprayer. Each pot was placed into perforated plastic bags with a zip closure. About 10 to 11 armyworm larvae were placed into the bag and the bags zipped closed. Test plants were maintained in a growth room at about 25° C. and about 20-40% relative humidity for 4 days, avoiding direct exposure to fluorescent light (24 hour photoperiod) to prevent trapping of heat inside the bags. Mortality and reduced feeding were assessed 4 days after treatment, compared to untreated control plants.

[8] = 800 ppm, egg and larval mortality visually assessed after 5 days

Cc1cccc(C)c1NC(=S)N/N=C/c1ccc2c(ccc3c2ncn3-c2ccc(OC(F)(F)F)cc2)n1 [Compound C-1, 1-(2,6-dimethylphenyl)-3-[(E)-[3-[4-(trifluoromethoxy)phenyl]imidazo[4,5-f]quinolin-7-yl]methyleneamino]thiourea]
≥ 75%: mortality at 800 ppm [1, 8] | mortality at 800 ppm [2] | mortality at 800 ppm [3] | mortality at 800 ppm [4]

Cc1cccc(C)c1N1C(=O)CS/C1=N\N=C\c1ccc2c(ccc3c2ncn3-c2ccc(OC(F)(F)F)cc2)n1 [Compound C-2, (2Z)-3-(2,6-dimethylphenyl)-2-[(E)-[3-[4-(trifluoromethoxy)phenyl]imidazo[4,5-f]quinolin-7-yl]methylenehydrazono]thiazolidin-4-one]
≥ 75%: mortality at 800 ppm [1, 8] | mortality at 800 ppm [2] | mortality at 500 ppm [5] | mortality at 800 ppm [3] | mortality at 800 ppm [4] | mortality at 500 ppm [6] | mortality at 500 ppm [7]

Cc1cccc(C)c1/N=C1\SCC(=O)N1/N=C/c1ccc2c(ccc3c2ncn3-c2ccc(OC(F)(F)F)cc2)n1 [Compound C-7, (2Z)-2-(2,6-dimethylphenyl)imino-3-[(E)-[3-[4-(trifluoromethoxy)phenyl]imidazo[4,5-f]quinolin-7-yl]methyleneamino]thiazolidin-4-one]
≥ 75%: mortality at 800 ppm [1, 8] | mortality at 800 ppm [2] | mortality at 500 ppm [5] | mortality at 800 ppm [3] | mortality at 800 ppm [4] | mortality at 500 ppm [6] | mortality at 500 ppm [7]

CC1CCC(C(C)C)C(OC(=O)Nc2ccc3c(ccc4c3ncn4-c3ccc(OC(F)(F)F)cc3)n2)C1 (stereo not drawn) [Compound C-12, (2-isopropyl-5-methyl-cyclohexyl) N-[3-[4-(trifluoromethoxy)phenyl]imidazo[4,5-f]quinolin-7-yl]carbamate]
≥ 75%: mortality at 800 ppm [1]

CC(C)c1ccccc1NC(=S)N/N=C/c1cnc2c(ccc3c2ncn3-c2ccc(OC(F)(F)F)cc2)c1 [Compound C-13, 1-(2-isopropylphenyl)-3-[(E)-[3-[4-(trifluoromethoxy)phenyl]imidazo[4,5-h]quinolin-7-yl]methyleneamino]thiourea]
≥ 75%: mortality at 800 ppm [1, 8] | mortality at 800 ppm [2] | mortality at 800 ppm [4] | mortality at 500 ppm [6] | mortality at 500 ppm [7]

Cc1cccc(C)c1NC(=S)N/N=C/c1cnc2c(ccc3c2ncn3-c2ccc(OC(F)(F)F)cc2)c1 [Compound C-14, 1-(2,6-dimethylphenyl)-3-[(E)-[3-[4-(trifluoromethoxy)phenyl]imidazo[4,5-h]quinolin-7-yl]methyleneamino]thiourea]
≥ 75%: mortality at 800 ppm [1, 8] | mortality at 800 ppm [2] | mortality at 500 ppm [5] | mortality at 800 ppm [3] | mortality at 800 ppm [4] | mortality at 500 ppm [6]

Cc1cccc(C)c1N1C(=O)CS/C1=N\N=C\c1cnc2c(ccc3c2ncn3-c2ccc(OC(F)(F)F)cc2)c1 [Compound C-15, (2Z)-3-(2,6-dimethylphenyl)-2-[(E)-[3-[4-(trifluoromethoxy)phenyl]imidazo[4,5-h]quinolin-7-yl]methylenehydrazono]thiazolidin-4-one]
≥ 75%: mortality at 800 ppm [1, 8] | mortality at 800 ppm [2] | mortality at 500 ppm [5] | mortality at 800 ppm [3] | mortality at 800 ppm [4] | mortality at 500 ppm [6] | mortality at 500 ppm [7]

CC(C)c1ccccc1N1CCCS/C1=N/N=C/c1ccc2c(ccc3c2ncn3-c2ccc(OC(F)(F)F)cc2)n1 [Compound C-22, (E)-3-(2-isopropylphenyl)-N-[(E)-[3-[4-(trifluoromethoxy)phenyl]imidazo[4,5-f]quinolin-7-yl]methyleneamino]-1,3-thiazinan-2-imine]
≥ 75%: mortality at 800 ppm [1, 8] | mortality at 800 ppm [2] | mortality at 500 ppm [5] | mortality at 800 ppm [3] | mortality at 800 ppm [4] | mortality at 500 ppm [6]

CC(C)c1ccccc1NC(=S)N/N=C/c1cc2ccc3c(ncn3-c3ccc(OC(F)(F)F)cc3)c2cn1 [Compound C-24, 1-(2-isopropylphenyl)-3-[(E)-[3-[4-(trifluoromethoxy)phenyl]imidazo[4,5-h]isoquinolin-7-yl]methyleneamino]thiourea]
≥ 75%: mortality at 800 ppm [1, 8] | mortality at 800 ppm [2] | mortality at 800 ppm [4] | mortality at 500 ppm [6] | mortality at 500 ppm [7]

Cc1cccc(C)c1NC(=S)N/N=C/c1cc2ccc3c(ncn3-c3ccc(OC(F)(F)F)cc3)c2cn1 [Compound C-25, 1-(2,6-dimethylphenyl)-3-[(E)-[3-[4-(trifluoromethoxy)phenyl]imidazo[4,5-h]isoquinolin-7-yl]methyleneamino]thiourea]
≥ 75%: mortality at 800 ppm [1, 8] | mortality at 800 ppm [2] | mortality at 800 ppm [4] | mortality at 500 ppm [6]

CC(C)c1ccccc1N1C(=O)CS/C1=N\N=C\c1cc2ccc3c(ncn3-c3ccc(OC(F)(F)F)cc3)c2cn1 [Compound C-26, (2Z)-3-(2-isopropylphenyl)-2-[(E)-[3-[4-(trifluoromethoxy)phenyl]imidazo[4,5-h]isoquinolin-7-yl]methylenehydrazono]thiazolidin-4-one]
≥ 75%: mortality at 800 ppm [1, 8] | mortality at 800 ppm [2] | mortality at 500 ppm [5] | mortality at 800 ppm [3] | mortality at 800 ppm [4] | mortality at 500 ppm [6] | mortality at 500 ppm [7]

CC(C)c1ccccc1NC(=S)N/N=C/c1ccc2c(ccc3c2ncn3-c2ccc(OC(F)F)cc2)n1 [Compound C-31, 1-[(E)-[3-[4-(difluoromethoxy)phenyl]imidazo[4,5-f]quinolin-7-yl]methyleneamino]-3-(2-isopropylphenyl)thiourea]
≥ 75%: mortality at 500 ppm [5] | mortality at 500 ppm [6]

CC(C)c1ccccc1N1C(=O)CS/C1=N/N=C/c1ccc2c(ccc3c2ncn3-c2ccc(OC(F)F)cc2)n1 [Compound C-32, (2E)-2-[(E)-[3-[4-(difluoromethoxy)phenyl]imidazo[4,5-f]quinolin-7-yl]methylenehydrazono]-3-(2-isopropylphenyl)thiazolidin-4-one]
≥ 75%: mortality at 500 ppm [5] | mortality at 500 ppm [6]
